Experimental data reported in US9307765B2, “Selective weed control using D-napropamide” (UPL Limited, priority 2013, dated 2016).

Columns and labels:
Type in all cases: in vivo
[1] = tested on: Digitaria sanguinalis; assay: Plot trial, % control of Digitaria sanguinalis
Experimental: (§1) Field trials were conducted on various moncotyledonous weeds and dicotyledonous weeds and the effect of D-isomer of Napropamide was studied to understand the selective and effective control of dicotyledonous weeds over monocotyledonous weeds. The effect of D-isomer of Napropamide in comparison to racemic napropramide and untreated was studied, which is concluded hereinbelow:
(§2) Several small plot replicated trials were carried out to evaluate and/or compare the efficacy of D-Napropamide against a range of indicated annual broadleaved and grass weed species in the indicated crops. No problems were encountered during mixing or application of any of the product formulations or tank mixtures under test.
In each of the reported data, the homogeneity of variance was tested by Bartlett's test. Wherever this test indicated no homogeneity of variance, the transformed values were used for analysis of variance. Assessment data was then analyzed using a two-way analysis of variance (ANOVA) on untransformed and transformed data. The probability of no significant differences occurring between treatment means was calculated as the F probability value (p(F)). A mean comparison test was only performed and reported when the treatment of F that was calculated during analysis of variance was significant at the observed significance level specified for the mean comparison test. Where the data was transformed, treatment means in the reports were presented in their detransformed state, with the appropriate letter test and mean descriptions (LSD and standard deviation) derived from the transformed ANOVA. […]

[2] = tested on: Poa annua; assay: Pre-emergence glasshouse pot study, seedling emergence and growth (OECD guideline); details: for Mean Final Foliar Fresh Weights Expressed as Percentage of Untreated Controls / Mean Final Foliar Fresh Weights: Poa annua; for Mean Final Foliar Fresh Weights: 21 days after 50% emergence, untreated 0.90
Experimental: (§3) A study was carried out to determine the relative biological activity of the D and L isomers of Napropamide when applied pre-emergence to one monocotyledon and one dicotyledon species. Napropamide, containing 450 grammes active substance per liter (g a.s./L) formulated as a suspension concentrate and the D-isomer of Napropamide (1000 g a.s./L) were applied at a range of concentrations from 0.1575 to 1.26 kilograms of active substance per hectare (kg a.s/Ha).
(§4) EC50 values in kg a.s./Ha were calculated from the dose response data using final foliar fresh weight data for each species and was used to determine the relative biological activity of the D and L isomers of Napropamide. The methodology was based on the OECD guideline […], according to the revision of July 2006 for seedling emergence and growth. The study was conducted to GLP standards.
(§5) Seeds were sown directly into non-porous plastic pots containing the following mix of soil: 10 L of sterile loam+4 L of coarse grit (washed quartztite, nominal 4 mm)+10 L of sand. This soil mix was characterized as a sandy loam with an organic carbon content of 1.5% and pH of 7.2. Details of the plant species, number of seeds per pot and pot size are shown below. All seeds were sown 1-2 cm deep.
(§6) The highest concentration of Napropamide was prepared by measuring a calculated volume by weight and diluting with tap water to the full required volume. Lower concentrations were prepared by serial dilution with water. D-Napropamide was prepared by dissolving the calculated weight in acetone and adding water to give the full required volume in 50:50 acetone+water. Lower concentrations were prepared by serial dilution with 50:50 acetone+water. D-Napropamide dissolved completely.
(§7) The sprayer was calibrated within 24 hours prior to application by weight of 15 applications of water to six 86 mm ID petri dishes. The total weight of water over a known area enabled a simple calculation giving the volume rate to be made. The volume rate achieved was within the range specified in the study plan (200 L/Ha±10%).
(§8) Replication was 5 pots per treatment for each plant species. After application, pots were placed on the bench in glasshouse in randomized blocks. Plants were assessed for emergence, mortality and visual injury (expressed as a percentage of the untreated control: 0%=no injury, 1-39%=slight injury, 40-69%=moderate injury, 70-99%=severe injury and 100%=all plants dead) at 14 and 21 days after 50% emergence in the untreated controls. Fresh weights (biomass above soil level) were also recorded 21 days after 50% emergence in the untreated controls. Plants were fully turgid at the time of harvest.
(§9) Assessment data was recorded on pro-forma sheets and entered into Gylling ARM 7 software. EC50 values were calculated using audited means data from the final assessments (21 day). Gylling ARM 7.0 software used a simple probit—maximum likelihood estimation method with 99% confidence level. The EC50 values generated were then visually checked against the means data table to verify they appeared correct.

[3] = tested on: Stellaria media; assay: as above; details: for Mean Final Foliar Fresh Weights Expressed as Percentage of Untreated Controls / Mean Final Foliar Fresh Weights: Stellaria media; for Mean Final Foliar Fresh Weights: 21 days after 50% emergence, untreated 1.44
Experimental: as §3, §4, §5, §6, §7, §8, §9

[4] = tested on: Papaver rhoeas; assay: Field trial on strawberries, pre-emergence, visual % control
Experimental: as §1, §2
(§10) In each of the reported data, the homogeneity of variance was tested by Bartlett's test. Wherever this test indicated no homogeneity of variance, the transformed values were used for analysis of variance. Assessment data was then analyzed using a two-way analysis of variance (ANOVA) on untransformed and transformed data. The probability of no significant differences occurring between treatment means was calculated as the F probability value (p(F)). A mean comparison test was only performed and reported when the treatment of F that was calculated during analysis of variance was significant at the observed significance level specified for the mean comparison test. Where the data was transformed, treatment means in the reports were presented in their detransformed state, with the appropriate letter test and mean descriptions (LSD and standard deviation) derived from the transformed ANOVA.
(§11) Trial was carried out on strawberries to evaluate the efficacy and selectivity of D-Napropamide and equivalent rate of Devrinol (Napropramide) applied pre-emergence. […]

[5] = tested on: Senecio vulgaris; assay: as above
Experimental: as §1, §2, §10, §11

[6] = tested on: Matricaria sp.; assay: Field trial in winter oilseed rape, pre-emergence, % control and ground cover
Experimental: as §1, §2, §10
Trials were conducted to evaluate the selectivity and efficacy of D-isomer of Napropamide when applied pre-emergence to oilseed rape crop. The % control of weed was assessed at regular intervals.

[7] = rate 0.1575 kg/Ha pre-emergence
[8] = monocotyledonous weeds (Poa annua EC50)
[9] = dicotyledonous weeds (Stellaria media EC50)
[10] = 3.0 L/Ha of 450 g/L formulation
[11] = 4.2 L/Ha of 450 g/L formulation
[12] = 8.5 L/Ha of 450 g/L formulation

CCN(CC)C(=O)[C@@H](C)Oc1cccc2ccccc12 [D-Napropamide, D-(−)-N,N-diethyl-2-(α-naphthoxy)propionamide]
% Control ([1]; 3 L/Ha of 450 g/L formulation, 16 DAA): 7.50%
% Control ([1]; 3 L/Ha of 450 g/L formulation, 33 DAA): 8.75%
% Control ([1]; 4.5 L/Ha of 450 g/L formulation, 16 DAA): 10.00%
% Control ([1]; 4.5 L/Ha of 450 g/L formulation, 33 DAA): 10.00%
% Control ([1]; 6 L/Ha of 450 g/L formulation, 16 DAA): 10.00%
% Control ([1]; 6 L/Ha of 450 g/L formulation, 33 DAA): 12.50%
% Control ([1]; 7.5 L/Ha of 450 g/L formulation, 16 DAA): 10.00%
% Control ([1]; 7.5 L/Ha of 450 g/L formulation, 33 DAA): 11.25%
% Control ([1]; 9 L/Ha of 450 g/L formulation, 16 DAA): 10.00%
% Control ([1]; 9 L/Ha of 450 g/L formulation, 33 DAA): 18.75%
Conclusion: efficacy in comparison to Napropamide in the control of monocotyledonous weeds ([1]; Digitaria sanguinalis): only as efficacious or less
EC50 based on the final fresh weights ([2]; Poa annua (monocot), 21 day assessment, probit): 0.44 kg/Ha
Mean Final Foliar Fresh Weights Expressed as Percentage of Untreated Controls ([2]; rate 0.1575 kg/Ha): 100%
Mean Final Foliar Fresh Weights [2, 7]: 0.93 g
Mean Final Foliar Fresh Weights Expressed as Percentage of Untreated Controls ([2]; rate 0.315 kg/Ha): 71%
Mean Final Foliar Fresh Weights ([2]; rate 0.315 kg/Ha pre-emergence): 0.64 g
Mean Final Foliar Fresh Weights Expressed as Percentage of Untreated Controls ([2]; rate 0.630 kg/Ha): 50%
Mean Final Foliar Fresh Weights ([2]; rate 0.63 kg/Ha pre-emergence): 0.45 g
more active than L-Napropamide [2, 8]: ~2.86 times
times more active than racemic Napropamide [2, 8]: about 1.63 times
EC50 based on the final fresh weights ([3]; Stellaria media (dicot), 21 day assessment, probit): 0.054 kg/Ha
Mean Final Foliar Fresh Weights Expressed as Percentage of Untreated Controls ([3]; rate 0.1575 kg/Ha): 35%
Mean Final Foliar Fresh Weights [3, 7]: 0.498 g
Mean Final Foliar Fresh Weights Expressed as Percentage of Untreated Controls ([3]; rate 0.315 kg/Ha): 14%
Mean Final Foliar Fresh Weights ([3]; rate 0.315 kg/Ha pre-emergence): 0.198 g
Mean Final Foliar Fresh Weights Expressed as Percentage of Untreated Controls ([3]; rate 0.630 kg/Ha): 12%
Mean Final Foliar Fresh Weights ([3]; rate 0.63 kg/Ha pre-emergence): 0.17 g
times more active than L-Napropamide [3, 9]: ~23.33 times
times more active than racemic Napropamide [3, 9]: about 4.07 times
Percentage Control at 70 DAA [4, 10]: 71.7%
Percentage Control at 70 DAA [4, 11]: 95.0%
Percentage Control at 70 DAA [4, 12]: 97.5%
Conclusion: efficacy in control vis-à-vis Napropamide at an equivalent dosage ([4]; Papaver rhoeas): surprising efficacy
Percentage Control at 70 DAA [5, 10]: 75.0%
Percentage Control at 70 DAA [5, 11]: 50.0%
Percentage Control at 70 DAA [5, 12]: 75.0%
Conclusion: efficacy in control vis-à-vis Napropamide at an equivalent dosage ([5]; Senecio vulgaris): surprising efficacy
Percentage ground cover %, value in brackets (untreated 0.0%) ([6]; 450 g/L @ 2.0 L/Ha): (99.3%)
Percentage Control at 49 DAA ([6]; 450 g/L @ 2.0 L/Ha, oilseed rape): 97.00%
Percentage ground cover % ([6]; 450 g/L @ 2.0 L/Ha, untreated 4.50): 0.30%
Conclusion: efficacy in control vis-à-vis Napropamide at an equivalent dosage ([6]; Matricaria sp., dicot, oilseed rape): superior efficacy
